For the assay, the target named is TIE-2 (Homo sapiens, UniProt Q02763). The assay is described as follows: TIE-2 kinase flashplate assay (phosphorylation of poly(Glu, Tyr) with 33P-ATP). In kind it is biochemical. The settings on record: read-out: Inhibition of TIE-2 IC50. The protocol: The TIE-2 tests can be carried out, for example, analogously to the methods indicated in WO 02/44156.
The assay determines the inhibiting activity of the substances to be tested in the phosphorylation of the substrate poly(Glu, Tyr) by Tie-2 kinase in the presence of radioactive ^33P-ATP. The phosphorylated substrate binds to the surface of a “flashplate” microtitre plate during the incubation time. After removal of the reaction mixture, the microtitre plate is washed a number of times and the radioactivity on its surface is subsequently measured. An inhibiting effect of the substances to be measured results in lower radioactivity compared with an undisturbed enzymatic reaction.

By IC50 is commonly meant the concentration that inhibits the measured activity by half.

Sequence of TIE-2 (Q02763 23-1124, species assumed): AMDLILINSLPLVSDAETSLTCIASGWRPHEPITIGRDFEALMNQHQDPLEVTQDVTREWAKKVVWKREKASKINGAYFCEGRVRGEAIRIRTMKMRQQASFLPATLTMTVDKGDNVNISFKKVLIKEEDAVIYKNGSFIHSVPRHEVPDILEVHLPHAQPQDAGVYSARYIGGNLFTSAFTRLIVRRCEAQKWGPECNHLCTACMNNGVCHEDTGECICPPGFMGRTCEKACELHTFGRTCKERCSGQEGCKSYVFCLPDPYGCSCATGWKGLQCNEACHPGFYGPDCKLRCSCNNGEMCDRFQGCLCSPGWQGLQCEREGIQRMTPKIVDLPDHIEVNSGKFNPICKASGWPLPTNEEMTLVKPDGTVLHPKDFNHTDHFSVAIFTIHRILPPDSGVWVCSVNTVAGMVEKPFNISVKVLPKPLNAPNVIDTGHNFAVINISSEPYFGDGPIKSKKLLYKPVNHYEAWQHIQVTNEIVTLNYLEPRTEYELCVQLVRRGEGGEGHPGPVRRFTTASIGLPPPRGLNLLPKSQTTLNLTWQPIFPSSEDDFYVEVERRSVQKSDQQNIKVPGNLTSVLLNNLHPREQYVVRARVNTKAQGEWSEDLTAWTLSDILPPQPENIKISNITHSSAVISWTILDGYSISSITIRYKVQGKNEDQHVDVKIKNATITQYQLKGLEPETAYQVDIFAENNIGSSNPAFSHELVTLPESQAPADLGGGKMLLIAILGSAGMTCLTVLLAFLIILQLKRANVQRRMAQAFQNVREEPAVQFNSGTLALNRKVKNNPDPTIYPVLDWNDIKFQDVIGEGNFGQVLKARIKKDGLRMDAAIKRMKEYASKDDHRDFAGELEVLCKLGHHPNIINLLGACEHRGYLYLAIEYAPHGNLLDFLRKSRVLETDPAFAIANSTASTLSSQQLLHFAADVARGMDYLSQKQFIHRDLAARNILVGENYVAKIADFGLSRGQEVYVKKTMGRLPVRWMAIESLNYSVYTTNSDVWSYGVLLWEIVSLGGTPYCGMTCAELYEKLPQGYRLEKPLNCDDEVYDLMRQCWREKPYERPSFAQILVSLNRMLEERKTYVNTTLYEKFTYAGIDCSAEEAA

Consider `Nc1nc2cc(CCCO)ccc2n1Cc1ccc(NS(=O)(=O)c2cccc(Cl)c2Cl)cc1` [N-{4-[2-amino-5-(3-hydroxy-propyl)benzimidazol-1-yl-methyl]phenyl}-2,3-dichloro-benzenesulfonamide], for which the IC50 is 320 nM.
With `Nc1nc2cc(Br)ccc2n1Cc1ccc(NS(=O)(=O)c2cccc(Cl)c2Cl)cc1` [N-[4-(2-amino-5-bromo-benzimidazol-1-ylmethyl)-phenyl]-2,3-dichloro-benzenesulfonamide] the figure was 2780 nM.
